Laboratory results: patent publication US20250145589A1, “PYRIDINE DERIVATIVE AND USE THEREOF” (SICHUAN HUIYU PHARMACEUTICAL CO., LTD., priority 2021, published 2025)
Where two headings read alike, the source gives them in different places.

Columns and labels:
PI3Kα = PI3Kα (Homo sapiens (Human), UniProt P42336); test: Inhibition of PI3Kα efficacy assay (ADP-Glo kinase assay); type: biochemical; conditions: read-out: PI3Kα inhibitory activity (IC50)
In short: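 ADP-Glo luminescent detection of ADP from PI3Kα acting on PI substrate with ATP, 60 min at RT; compounds in 8-point five-fold serial dilution from 2 mM DMSO stock. IC50 from four-parameter variable-slope fit.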

PI3Kδ = PI3Kδ (Homo sapiens (Human), UniProt O00329); test: Inhibition of PI3Kδ efficacy assay (ADP-Glo kinase assay); type: biochemical; conditions: read-out: PI3Kδ inhibitory activity (IC50)
Chain of PI3Kδ (O00329 whole entry): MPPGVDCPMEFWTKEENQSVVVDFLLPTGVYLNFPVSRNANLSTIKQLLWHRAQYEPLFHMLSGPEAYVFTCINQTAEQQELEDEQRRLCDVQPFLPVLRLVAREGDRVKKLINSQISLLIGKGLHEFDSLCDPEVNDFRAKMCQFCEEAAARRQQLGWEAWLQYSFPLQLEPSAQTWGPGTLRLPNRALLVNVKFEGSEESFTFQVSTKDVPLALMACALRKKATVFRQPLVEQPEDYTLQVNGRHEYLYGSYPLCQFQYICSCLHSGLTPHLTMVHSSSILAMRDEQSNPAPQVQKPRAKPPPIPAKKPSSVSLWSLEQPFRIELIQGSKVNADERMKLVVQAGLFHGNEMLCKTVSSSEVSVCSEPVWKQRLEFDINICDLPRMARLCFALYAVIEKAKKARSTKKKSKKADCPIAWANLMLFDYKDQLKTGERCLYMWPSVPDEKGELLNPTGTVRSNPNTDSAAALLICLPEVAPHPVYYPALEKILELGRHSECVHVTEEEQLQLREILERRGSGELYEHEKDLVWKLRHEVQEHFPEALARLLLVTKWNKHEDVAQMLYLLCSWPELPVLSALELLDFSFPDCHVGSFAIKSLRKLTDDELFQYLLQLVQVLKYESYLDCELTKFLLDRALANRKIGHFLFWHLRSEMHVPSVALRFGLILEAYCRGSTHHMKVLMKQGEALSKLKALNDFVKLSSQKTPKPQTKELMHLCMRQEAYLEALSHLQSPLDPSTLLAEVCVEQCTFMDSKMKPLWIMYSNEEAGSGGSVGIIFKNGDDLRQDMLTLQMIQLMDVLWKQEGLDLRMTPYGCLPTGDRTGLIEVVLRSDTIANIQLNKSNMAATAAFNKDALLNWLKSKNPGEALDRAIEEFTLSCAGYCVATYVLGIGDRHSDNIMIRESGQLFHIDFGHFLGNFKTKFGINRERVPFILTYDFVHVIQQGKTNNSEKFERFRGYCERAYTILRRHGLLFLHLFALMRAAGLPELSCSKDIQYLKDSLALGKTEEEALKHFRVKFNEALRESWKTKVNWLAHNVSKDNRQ
Chain of PI3Kδ (P27986 whole entry partner): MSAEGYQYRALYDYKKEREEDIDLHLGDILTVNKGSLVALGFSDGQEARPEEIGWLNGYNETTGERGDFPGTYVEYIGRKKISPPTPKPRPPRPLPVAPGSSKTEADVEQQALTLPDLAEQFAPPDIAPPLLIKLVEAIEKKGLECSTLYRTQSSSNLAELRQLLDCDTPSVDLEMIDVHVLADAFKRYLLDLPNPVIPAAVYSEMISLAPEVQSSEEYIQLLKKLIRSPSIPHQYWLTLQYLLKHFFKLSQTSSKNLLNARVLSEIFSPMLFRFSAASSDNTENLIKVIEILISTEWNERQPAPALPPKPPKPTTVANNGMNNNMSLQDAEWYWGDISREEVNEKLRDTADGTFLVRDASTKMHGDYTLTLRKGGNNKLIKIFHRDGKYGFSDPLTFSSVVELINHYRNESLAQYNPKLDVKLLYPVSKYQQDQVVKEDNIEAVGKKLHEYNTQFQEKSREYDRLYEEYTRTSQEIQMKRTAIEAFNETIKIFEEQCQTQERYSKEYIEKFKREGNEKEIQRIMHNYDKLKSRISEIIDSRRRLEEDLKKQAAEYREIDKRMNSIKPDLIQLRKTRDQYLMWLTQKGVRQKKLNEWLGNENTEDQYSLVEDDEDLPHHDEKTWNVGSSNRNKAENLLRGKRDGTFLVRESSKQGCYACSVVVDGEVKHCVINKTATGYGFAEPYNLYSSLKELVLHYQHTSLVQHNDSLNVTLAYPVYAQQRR
In short: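 Luminescent ADP-Glo readout of PI3Kδ: after a 60 min RT reaction with PI/ATP substrate, ATP depletion (40 min) and ADP detection (40 min) steps followed. Compounds tested as eight five-fold serial dilutions; inhibition rates fitted to log(inhibitor) vs. response, variable slope, for IC50.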

[1] = test system: NCI-H358 cells (KRAS G12C mutant); test: NCI-H358 cell proliferation inhibition (CellTiter-Glo); type: cell-based; conditions: Homo sapiens, NCI-H358, 72 h; H358 cells (G12C mutation), 3 days, Table 6; read-out: NCI-H358 (IC50)
[2] = test system: MIA PaCa-2 cells (KRAS G12C mutant); test: MIA PaCa-2 cell anti-proliferation (CellTiter-Glo); type: cell-based; conditions: Homo sapiens
Experimental: The number of viable cells was determined using the CellTiter-Glo® assay to evaluate the anti-proliferation efficacy of compounds. […] The compounds were serially diluted 4-fold in DMSO to obtain 9 concentrations, and then further diluted with DMEM (10% FBS+2.5% horse serum+1% penicillin/streptomycin) cell culture medium to obtain the working solutions (2×), 15 μL of each working solution was added to the cell culture supernatant in each well, and the cells were further incubated for 3 days at 37° C. with 5% CO2. The plate was then equilibrated with CellTiter-Glo® reagent at room temperature (25° C.) for 30 minutes. After adding 25 μL of CellTiter-Glo®, reagent, the cells were thoroughly mixed with the CellTiter-Glo® reagent using a microplate shaker for 2 minutes, and then incubated at room temperature for at least 30 minutes. […] Data were analyzed using GraphPad Prism for IC50 values (Note: The negative control refers to the group without inhibitor).

[3] = 72 h, MIA Paca-2 cells, 3 days, Table 7, read-out: MIA PaCa-2 (IC50)

Chain of PI3Kα (P42336 whole entry): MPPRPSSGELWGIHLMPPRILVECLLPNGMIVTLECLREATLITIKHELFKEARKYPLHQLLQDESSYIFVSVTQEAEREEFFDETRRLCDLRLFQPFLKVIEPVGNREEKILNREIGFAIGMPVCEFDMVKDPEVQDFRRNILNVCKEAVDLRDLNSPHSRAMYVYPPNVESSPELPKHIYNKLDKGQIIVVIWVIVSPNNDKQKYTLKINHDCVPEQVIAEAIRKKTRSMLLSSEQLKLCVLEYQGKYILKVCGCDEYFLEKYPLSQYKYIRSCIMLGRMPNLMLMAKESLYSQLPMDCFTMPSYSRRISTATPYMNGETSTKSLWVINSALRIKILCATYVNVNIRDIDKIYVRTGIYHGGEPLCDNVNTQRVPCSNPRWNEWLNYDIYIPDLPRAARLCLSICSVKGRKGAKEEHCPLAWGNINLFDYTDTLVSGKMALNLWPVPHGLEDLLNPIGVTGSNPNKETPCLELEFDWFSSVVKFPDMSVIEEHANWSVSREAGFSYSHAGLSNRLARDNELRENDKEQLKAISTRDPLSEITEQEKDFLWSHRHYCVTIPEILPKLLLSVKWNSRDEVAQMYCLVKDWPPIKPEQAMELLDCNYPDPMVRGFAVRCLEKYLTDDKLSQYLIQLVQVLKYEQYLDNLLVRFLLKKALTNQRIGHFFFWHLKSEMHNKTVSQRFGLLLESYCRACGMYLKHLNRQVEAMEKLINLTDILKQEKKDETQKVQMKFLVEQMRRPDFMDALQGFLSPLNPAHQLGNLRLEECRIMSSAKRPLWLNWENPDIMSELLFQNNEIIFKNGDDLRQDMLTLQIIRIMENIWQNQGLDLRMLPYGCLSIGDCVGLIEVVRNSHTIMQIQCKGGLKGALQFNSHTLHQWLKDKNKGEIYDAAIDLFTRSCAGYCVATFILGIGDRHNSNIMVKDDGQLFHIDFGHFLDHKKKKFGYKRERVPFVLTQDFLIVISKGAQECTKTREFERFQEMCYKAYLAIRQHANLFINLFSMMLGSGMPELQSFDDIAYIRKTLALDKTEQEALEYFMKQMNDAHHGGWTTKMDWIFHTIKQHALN
Chain of PI3Kα (P27986 whole entry partner): as the sequence (P27986 whole entry partner) above

Compound | IC50 (PI3Kα; Table 4) | IC50 (PI3Kδ; Table 4) | IC50 [1] | IC50 [2, 3] | IC50 (PI3Kα; Table 1) | IC50 (PI3Kδ; Table 1) | IC50 (PI3Kα; Table 2) | IC50 (PI3Kδ; Table 2) | IC50 ([2]; MIA PaCa-2, 72 h, read-out: MIA PaCa-2 (IC50, nM))
COc1ncc(-c2ccc3ncnc(N4CCN(C(=O)/C=C/C(C)=O)CC4)c3c2)cc1S(=O)(=O)Nc1ccc(F)cc1F [Example 166, (E)-N-(2,4-difluorophenyl)-2-methoxy-5-(4-(4-(4-oxopent-2-enoyl)piperazin-1-yl)quinazolin-6-yl)pyridine-3-sulfonamide] | 16.1 nM | 22.3 nM | 344 nM | 369 nM |  |  |  |  | 
C=CC(=O)N1CCC(Nc2ncnc3ccc(-c4cnc(Cl)c(NS(=O)(=O)c5ccc(F)cc5F)c4)nc23)CC1 [Example 2, N-(5-(4-((1-acryloylpiperidin-4-yl)amino)pyrido[3,2-d]pyrimidin-6-yl)-2-chloropyridin-3-yl)-2,4-difluorobenzenesulfonamide] |  |  | 485 nM | 485 nM | 7.3 nM | 41.8 nM |  |  | 
CC(=O)/C=C/C(=O)N1CCN(c2ncnc3ccc(-c4cnc(C(F)(F)F)c(NS(=O)(=O)c5ccc(F)cc5F)c4)cc23)CC1 [Example 192, (E)-2,4-difluoro-N-(5-(4-(4-(4-oxopent-2-enoyl)piperazin-1-yl)quinazolin-6-yl)-2-(tri-fluoromethyl)pyridin-3-yl) benzene-sulfonamide] | 9.3 nM |  | 782 nM | 827 nM |  |  |  |  | 
CCC(=O)/C=C/C(=O)N1CCN(c2ncnc3ccc(-c4cnc(OC)c(NS(=O)(=O)c5c(F)cccc5F)c4)nc23)CC1 [Example 212, (E)-2,6-difluoro-N-(2-methoxy-5-(4-(4-(4-oxohex-2-enoyl)piperazin-1-yl)pyrido[3,2-d]pyrimidin-6-yl)pyridin-3-yl) benzene-sulfonamide] | 3.8 nM |  | 15.2 nM | 14 nM |  |  |  |  | 
C=CC(=O)N1CCN(c2ncnc3ccc(-c4cnc(OC)c(NS(=O)(=O)c5c(F)cccc5F)c4)nc23)CC1 [Example 214, N-(5-(4-(4-acryloyl-piperazin-1-yl)pyrido[3,2-d]pyrimidin-6-yl)-2-methoxy-pyridin-3-yl)-2,6-difluoro-benzene-sulfonamide] | 2.1 nM |  | 12.6 nM | 6.3 nM |  |  |  |  | 
COc1ncc(-c2cc(C(F)(F)F)c3ncnc(N4CCN(C(=O)/C=C/C(C)=O)CC4)c3c2)cc1NS(=O)(=O)c1ccc(F)cc1F [Example 243, (E)-2,4-difluoro-N-(2-methoxy-5-(4-(4-(4-oxopent-2-enoyl)piperazin-1-yl)-8-(trifluoromethyl)quinazolin-6-yl)pyridin-3-yl)benzenesulfonamide] | 838 nM |  | 720 nM |  |  |  |  |  | 393 nM
COc1ncc(-c2ccc3ncnc(N4CCN(C(=O)/C(C#N)=C/C(C)(C)C)CC4)c3c2)cc1NS(=O)(=O)c1ccc(F)cc1F [Example 180, (E)-N-(5-(4-(4-(2-cyano-4,4-dimethyl-pent-2-enoyl)piperazin-1-yl)quinazolin-6-yl)-2-methoxy-pyridin-3-yl)-2,4-difluoro-benzene-sulfonamide] | 1.8 nM |  | 114 nM | 45.2 nM |  |  |  |  | 
COc1ncc(-c2ccc3ncnc(N4CCN(C(=O)/C=C/C(C)=O)CC4)c3n2)cc1NS(=O)(=O)c1sc(C)nc1C [Example 222, (E)-N-(2-methoxy-5-(4-(4-(4-oxopent-2-enoyl)piperazin-1-yl)pyrido[3,2-d]pyrimidin-6-yl)pyridin-3-yl)-2,4-dimethyl-thiazole-5-sulfonamide] | 0.49 nM | 11.7 nM | 35.1 nM | 29.1 nM |  |  |  |  | 
CC(=O)/C=C/C(=O)N1CCN(c2ncnc3ccc(-c4cnc(OC(F)(F)F)c(NS(=O)(=O)c5ccc(F)cc5F)c4)cc23)CC1 [Example 194, (E)-2,4-difluoro-N-(5-(4-(4-(4-oxopent-2-enoyl)piperazin-1-yl)quinazolin-6-yl)-2-(trifluoromethoxy)pyridin-3-yl)benzenesulfonamide] | 2.8 nM |  | 728 nM | 782 nM |  |  |  |  | 
C=CC(=O)N1CCN(c2ncnc3ccc(-c4cnc(OC)c(NS(C)(=O)=O)c4)cc23)CC1 [Example 4, N-(5-(4-(4-acryloylpiperazin-1-yl)quinazolin-6-yl)-2-methoxypyridin-3-yl)methanesulfonamide] |  |  | 494 nM | 494 nM | 9.5 nM | 12 nM |  |  | 
COc1ncc(-c2ccc3ncnc(N4CCN(C(=O)/C=C/C(C)=O)CC4)c3c2)cc1NS(=O)(=O)c1cccc2cccc(Cl)c12 [Example 96, (E)-8-chloro-N-(2-methoxy-5-(4-(4-(4-oxopent-2-enoyl)piperazin-1-yl)quinazolin-6-yl)pyridin-3-yl)naphthalene-1-sulfonamide] |  |  | 35.8 nM | 90 nM |  |  | 1 nM | 171 nM | 
COc1ncc(-c2cc3c(N4CCN(C(=O)/C=C/C(C)=O)CC4)ncnc3cn2)cc1NS(=O)(=O)c1ccc(F)cc1F [Example 245, (E)-2,4-difluoro-N-(2-methoxy-5-(4-(4-(4-oxopent-2-enoyl)piperazin-1-yl)pyrido[3,4-d]pyrimidin-6-yl)pyridin-3-yl)benzenesulfonamide] | 14.9 nM |  | 497 nM | 827 nM |  |  |  |  | 

Continued by falling IC50 [1], values first:

IC50 (PI3Kα; Table 4) | IC50 (PI3Kδ; Table 4) | IC50 [1] | IC50 [2, 3] | IC50 (PI3Kα; Table 1) | IC50 (PI3Kδ; Table 1) | IC50 (PI3Kα; Table 2) | IC50 (PI3Kδ; Table 2) | Compound | IC50 ([2]; MIA PaCa-2, 72 h, read-out: MIA PaCa-2 (IC50, nM))
3.3 nM |  | 530 nM | 865 nM |  |  |  |  | CC(=O)/C=C/C(=O)N1CCN(c2ncnc3ccc(-c4cnc(C)c(NS(=O)(=O)c5ccc(F)cc5F)c4)cc23)CC1 [Example 188, (E)-2,4-difluoro-N-(2-methyl-5-(4-(4-(4-oxopent-2-enoyl)piperazin-1-yl)quinazolin-6-yl)pyridin-3-yl)benzene-sulfonamide] | 
9.5 nM |  | 112 nM | 108 nM |  |  |  |  | CCOc1ncc(-c2ccc3ncnc(N4CCN(C(=O)/C=C/C(C)=O)CC4)c3c2)cc1NS(=O)(=O)c1ccccc1F [Example 190, (E)-N-(2-ethoxy-5-(4-(4-(4-oxopent-2-enoyl)piperazin-1-yl)quinazolin-6-yl)pyridin-3-yl)-2-fluoro-benzene-sulfonamide] | 
3.1 nM |  | 65.8 nM | 79.5 nM |  |  |  |  | COc1ncc(-c2ccc3ncnc(C4=CCN(C(=O)/C=C/C(C)=O)CC4)c3n2)cc1NS(=O)(=O)c1ccccc1F [Example 238, (E)-2-fluoro-N-(2-methoxy-5-(4-(1-(4-oxopent-2-enoyl)-1,2,3,6-tetrahydropyridin-4-yl)pyrido[3,2-d]pyrimidin-6-yl)pyridin-3-yl)benzenesulfonamide] | 
5.2 nM |  | 58.6 nM | 71.6 nM |  |  |  |  | COc1ncc(-c2ccc3ncnc(C4=CCN(C(=O)/C=C/C(C)=O)CC4)c3n2)cc1NS(=O)(=O)c1sc(C)nc1C [Example 237, (E)-N-(2-methoxy-5-(4-(1-(4-oxopent-2-enoyl)-1,2,3,6-tetrahydropyridin-4-yl)pyrido[3,2-d]pyrimidin-6-yl)pyridin-3-yl)-2,4-dimethylthiazole-5-sulfonamide] | 
6.4 nM |  | 55 nM | 70.2 nM |  |  |  |  | COc1ncc(-c2ccc3ncnc(C4=CCN(C(=O)/C=C/C(C)=O)CC4)c3n2)cc1NS(=O)(=O)c1c(F)cccc1F [Example 239, (E)-2,6-difluoro-N-(2-methoxy-5-(4-(1-(4-oxopent-2-enoyl)-1,2,3,6-tetrahydropyridin-4-yl)pyrido[3,2-d]pyrimidin-6-yl)pyridin-3-yl)benzenesulfonamide] | 
2.2 nM |  | 42.9 nM | 60 nM |  |  |  |  | COc1ncc(-c2ccc3ncnc(N4CCN(C(=O)/C=C/C(C)=O)CC4)c3n2)cc1NS(=O)(=O)c1ccc(C(F)(F)F)cc1F [Example 221, (E)-2-fluoro-N-(2-methoxy-5-(4-(4-(4-oxopent-2-enoyl)piperazin-1-yl)pyrido[3,2-d]pyrimidin-6-yl)pyridin-3-yl)-4-(trifluoro-methyl)benzene-sulfonamide] | 
2.4 nM |  | 10 nM | 6.3 nM |  |  |  |  | COC/C=C/C(=O)N1CCN(c2ncnc3ccc(-c4cnc(OC)c(NS(=O)(=O)c5c(F)cccc5F)c4)nc23)CC1 [Example 215, (E)-2,6-difluoro-N-(2-methoxy-5-(4-(4-(4-methoxybut-2-enoyl)piperazin-1-yl)pyridino [3,2-d]pyrimidin-6-yl)pyridin-3-yl) benzene-sulfonamide] | 
